Laboratory results as given in patent US12049483B2, “Selective and noncovalent inhibitors of oncogenic RAS mutants” (New York University, priority 2020, dated 2024).
Peptide text beside a SMILES is read from it. * marks the point of attachment. Cbz = O=C(OCc1ccccc1)*

Key:
ERK activation (pERK) = assay: ERK activation in dox-inducible monobody-expressing cell lines; type: cell-based; conditions: H358; after 24 and 48 hours; dox-induced expression or ARS1620 treatment
Method: Cell signaling assay and quantification of immunoblots. Cells were lysed in RIPA buffer (50 mM Tris-Cl pH 8, 150 mM NaCl, 5 mM EDTA pH8, 0.1% SDS, 1% NP40) supplemented with protease inhibitors (Roche; 5892991001) and phosphatase inhibitors (54 mM β-glycerophosphate, 10 mM NaF, 1 mM sodium vanadate) for 15 minutes on ice, and centrifuged at 15,000 g for 15 minutes. The supernatant was collected and measured for total protein amount using BCA assay (Thermo Scientific; 23227). Lysate (7-20 μg per well) was loaded onto a pre-cast SDS gel (BioRad; 456-1096) followed by electrophoresis. The proteins were then transferred from the gel to a low fluorescence background PVDF membrane (Millipore; IPFL00010) or regular PVDF membrane (Millipore; ISEQ00010) depending on whether fluorescence or chemiluminescence detection was performed. Phospho-ERK was detected using a rabbit anti-pERK antibody (Cell Signaling; 9101S) and total ERK was detected using a rabbit anti-ERK antibody (Cell Signaling; 9102S). Monobody expression was detected using mouse anti-Flag antibody (Sigma; F3165) or anti-HA tag antibody (BioLegend; 901516). Loading control was detected with primary antibody against tubulin-alpha (Thermo Scientific, 62204) or against cytochrome oxidase (COX IV) (Li-Cor, 926-42214). The total RAS level was detected using a pan-RAS antibody (SCBT, sc-166691). The KRAS level was determined using a KRAS-specific antibody (Sigma, WH0003845M1). For fluorescence detection of immunoblots, the membranes were imaged with a Licor Odyssey Clx imager (Li-Cor Bioscience) using IRDye anti-Rabbit 800CW and anti-Mouse 680LT (Li-Cor Bioscience, 926-32211 and 926-68020, respectively) as secondary antibodies. […] Band intensities of western blot were analyzed with Image Studio Lite version 5.2 (Li-Cor Bioscience). To quantify protein abundance in the degradation experiment, the intensities of pERK, RAS, KRAS, and Flag/HA tag bands were first normalized against the loading control of the perspective blot, which were either tubulin-α, COX IV or total ERK, followed by subsequent normalization to the zero time point. […]

KRAS(G12C) [1] = biological target: T1, KRAS(G12C) (Homo sapiens, UniProt P01116, G12C); assay: Yeast display binding titration, KRAS(G12C); parameters: KRAS4B residues 1-174 containing G12C, G12V, G12D, G13D, Q61L, WT; His6 (N, cleaved yes); Avi-tag (N, cleaved yes); made in house; host or cells: E. coli BL21(DE3); conditions: ARS1620 added during nucleotide exchange
Method: Nucleotide exchange of RAS. Purified RAS proteins used in binding experiment and crystallization were prepared by diluting stock protein (typically containing 20-250 μM RAS) 25 times with 20 mM Tris-Cl buffer pH 7.5 containing 5 mM EDTA, 0.1 mM DTT and 1 mM final concentration of a nucleotide (GDP or GTPγS). Samples were incubated at 30° C. for 30 minutes. MgCl2 was then added to the sample at a final concentration of 20 mM and the solution was further incubated on ice for at least 5 minutes prior to use.
(§1) Monobody development. General procedures for the development of monobodies against purified protein targets have been described previously. After four rounds of phage display library selection using biotinylated KRAS(G12C) at concentrations of 100 nM, 100 nM, 50 nM and 50 nM, the genes encoding monobodies from the enriched phage pool were transferred to a yeast display vector, which was used to construct yeast-display libraries. The yeast display libraries were sorted using a Bio-Rad S3e fluorescence-activated cell sorter or a […] II cell sorter (BD Biosciences). […] Single clones were then screened for selective binding to RAS mutants. The expression of monobodies on the surface of yeast cells were detected using mouse anti-VS and anti-mouse IgG-FITC conjugate. Target binding was detected with neutravidin Dylight650. Yeast cells were analyzed using an iQue flow cytometer (Sartorius). […]
Target sequence in this assay (P01116 1-174 isoform P01116-2 G12C): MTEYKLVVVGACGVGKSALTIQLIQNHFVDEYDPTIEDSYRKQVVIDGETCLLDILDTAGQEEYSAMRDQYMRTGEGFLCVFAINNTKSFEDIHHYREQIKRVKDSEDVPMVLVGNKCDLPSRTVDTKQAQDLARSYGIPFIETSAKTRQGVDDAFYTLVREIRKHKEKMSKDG

KRAS(G12C) [2] = biological target: T1, KRAS(G12C); assay: Degradation of KRAS in RASless MEFs by VHL-monobody fusions; type: cell-based, mouse; parameters: expressed in transfected cells; host or cells: RASless mouse embryonic fibroblasts; conditions: MLN4924 1 μM or MG132 5 μM for 24 hours
Method: as §1
Target sequence in this assay (P01116 1-188 isoform P01116-2 G12C): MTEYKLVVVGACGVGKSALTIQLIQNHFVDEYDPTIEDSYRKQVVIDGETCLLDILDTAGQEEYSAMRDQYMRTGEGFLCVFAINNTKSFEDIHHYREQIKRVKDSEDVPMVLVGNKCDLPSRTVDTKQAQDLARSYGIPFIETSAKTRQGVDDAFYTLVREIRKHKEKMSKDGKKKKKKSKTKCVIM
Cell signaling assay and quantification of immunoblots. […] The supernatant was collected and measured for total protein amount using BCA assay (Thermo Scientific; 23227). […] The proteins were then transferred from the gel to a low fluorescence background PVDF membrane (Millipore; IPFL00010) or regular PVDF membrane (Millipore; ISEQ00010) depending on whether fluorescence or chemiluminescence detection was performed. […] The total RAS level was detected using a pan-RAS antibody (SCBT, sc-166691). […]

SMILES | ERK activation in H358 cells (ERK activation (pERK)) | binding of 12VC1 to KRAS(G12C) after reaction with ARS1620 (KRAS(G12C) [1]) | effect on RAS degradation by VHL-monobody fusion (KRAS(G12C) [2])
C=CC(=O)N1CCN(c2ncnc3c(F)c(-c4c(O)cccc4F)c(Cl)cc23)CC1 [ARS1620] | effectively inhibited | abolished | –
CC(C)C[C@@H](C=O)NC(=O)[C@H](CC(C)C)NC(=O)[C@H](CC(C)C)NC(=O)OCc1ccccc1 [MG132] (Cbz-Leu-Leu-Leu-aldehyde) | – | – | rescued
NS(=O)(=O)OC[C@@H]1C[C@@H](n2ccc3c(N[C@H]4CCc5ccccc54)ncnc32)C[C@@H]1O [MLN4924] | – | – | rescued
